The record followed here is paper PMC12730863 (Biomedicines, 2025).

Data set [1] deals with HCT-8 cells. Kind of data set: Cytotoxicity assay (MTT, 72 h). In kind it is cell-based, human. The settings on record: for Fold Resistance / IC50: HCT-8, chemotherapeutic drug alone; for Fold Resistance: relative to IC50 of HCT-8 without inhibitors. The method, then: (§1) Cells were seeded into 96-well plates at a concentration of 5 × 10^3 cells per well. Following cell attachment, the respective agents were added for a 72-h incubation period. Upon treatment completion, 500 μg/mL MTTwas added and the plates were incubated for 4 h. Subsequently, the supernatant was carefully aspirated, and 50 μL DMSO was added. Absorbance at 570 nm was measured via BioTek Synergy H1 plate reader (Agilent Technologies, Santa Clara, CA, USA). IC50 values were calculated with GraphPad Prism 8.0.

The subject of data set [2] is HCT-8/V cells. Put plainly: Cytotoxicity assay (MTT, 72 h). Format: cell-based, human. The settings on record: for IC50 / Fold Resistance: chemotherapeutic drug alone; for Fold Resistance: relative to IC50 of HCT-8 without inhibitors. How it is done: All cell lines were grown in Dulbecco’s modified Eagle’s medium supplemented with 10% CellMax fetal bovine serum (#SA301.02.V) from Lanzhou Minhai Bio-Engineering Co. (Lanzhou, China) and maintained in a humidified incubator at 37 °C with 5% CO2.
as §1

The test system of data set [3] is HCT-8 cells. Put plainly: Drug accumulation assay (flow cytometry). Format: cell-based, human. The settings on record: HCT-8 parental cells. The method, then:
(§2) Fluorescence imaging was performed using an Olympus CKX53 microscope (Tokyo, Japan) to assess the intracellular accumulation of the substrate drugs. Subsequently, cells were harvested, and fluorescent quantitative analysis was conducted using a Beckman CytoFLEX flow cytometer. The data were processed via FlowJo v10.8 software.

For data set [4], the system named is HCT-8/V cells. Put plainly: Drug accumulation assay (flow cytometry). In kind it is cell-based, human. The method, then: as §2
(In flow cytometry, cells or beads pass a laser one at a time.)

Data set [5] concerns ABCB1. Put plainly: Western blot of ABCB1 expression in HCT-8/V cells. In kind it is cell-based, human. The settings on record: 10 μM and 30 μM H89 for 0.5, 3 and 72 h. On the technique in general: In western blotting, separated proteins are transferred to a membrane and probed.
Procedure: Cells were placed in pre-cooled lysis buffer (containing 0.1% sodium dodecyl sulfate, 0.5% sodium deoxycholate, 1% Nonidet P-40, 10 ng/mL phenylmethanesulfonyl fluoride and 0.03% aprotinin) and lysed on ice for 30 min. After centrifugation (14,000× g, 10 min), the clear supernatant was collected. Proteins were separated by 10% sodium dodecyl sulfatepolyacrylamidegel electrophoresis and subsequently transferred to polyvinylidene difluoride membranes. The membranes were blocked with 5% BSA at room temperature for 1 h, followed by sequential incubation with primary antibodies specific to the target protein and horseradish peroxidase-conjugated secondary antibodies. Ultimately, signal detection was conducted via chemiluminescence using a gel imaging system from Bio-Rad Laboratories.
In data set [6] the target is T1, ABCB1 (Homo sapiens, UniProt P08183).
T1 construct: purchased Promega Corporation V3601
Kind of data set: ABCB1 ATPase activity assay. Format: biochemical. The settings on record: 5 mM Mg2+-ATP, 37 °C, 40 min, luminescence; read-out: IC50 of inhibition of the ATPase activity of ABCB1. How it is done: The detection was performed using anABCB1 ATPase Activity Assay Kit (#V3601, Promega Corporation, Madison, WI, USA). […] Subsequently, 5 mM Mg^2+-ATP was introduced to initiate the ATPase activity reaction. […] Finally, the emitted light was measured with a multi-functional microplate reader manufactured by Gene Company Limited (Chai Wan, Hong Kong).

Structures are written as SMILES.

T1 sequence (P08183 whole entry): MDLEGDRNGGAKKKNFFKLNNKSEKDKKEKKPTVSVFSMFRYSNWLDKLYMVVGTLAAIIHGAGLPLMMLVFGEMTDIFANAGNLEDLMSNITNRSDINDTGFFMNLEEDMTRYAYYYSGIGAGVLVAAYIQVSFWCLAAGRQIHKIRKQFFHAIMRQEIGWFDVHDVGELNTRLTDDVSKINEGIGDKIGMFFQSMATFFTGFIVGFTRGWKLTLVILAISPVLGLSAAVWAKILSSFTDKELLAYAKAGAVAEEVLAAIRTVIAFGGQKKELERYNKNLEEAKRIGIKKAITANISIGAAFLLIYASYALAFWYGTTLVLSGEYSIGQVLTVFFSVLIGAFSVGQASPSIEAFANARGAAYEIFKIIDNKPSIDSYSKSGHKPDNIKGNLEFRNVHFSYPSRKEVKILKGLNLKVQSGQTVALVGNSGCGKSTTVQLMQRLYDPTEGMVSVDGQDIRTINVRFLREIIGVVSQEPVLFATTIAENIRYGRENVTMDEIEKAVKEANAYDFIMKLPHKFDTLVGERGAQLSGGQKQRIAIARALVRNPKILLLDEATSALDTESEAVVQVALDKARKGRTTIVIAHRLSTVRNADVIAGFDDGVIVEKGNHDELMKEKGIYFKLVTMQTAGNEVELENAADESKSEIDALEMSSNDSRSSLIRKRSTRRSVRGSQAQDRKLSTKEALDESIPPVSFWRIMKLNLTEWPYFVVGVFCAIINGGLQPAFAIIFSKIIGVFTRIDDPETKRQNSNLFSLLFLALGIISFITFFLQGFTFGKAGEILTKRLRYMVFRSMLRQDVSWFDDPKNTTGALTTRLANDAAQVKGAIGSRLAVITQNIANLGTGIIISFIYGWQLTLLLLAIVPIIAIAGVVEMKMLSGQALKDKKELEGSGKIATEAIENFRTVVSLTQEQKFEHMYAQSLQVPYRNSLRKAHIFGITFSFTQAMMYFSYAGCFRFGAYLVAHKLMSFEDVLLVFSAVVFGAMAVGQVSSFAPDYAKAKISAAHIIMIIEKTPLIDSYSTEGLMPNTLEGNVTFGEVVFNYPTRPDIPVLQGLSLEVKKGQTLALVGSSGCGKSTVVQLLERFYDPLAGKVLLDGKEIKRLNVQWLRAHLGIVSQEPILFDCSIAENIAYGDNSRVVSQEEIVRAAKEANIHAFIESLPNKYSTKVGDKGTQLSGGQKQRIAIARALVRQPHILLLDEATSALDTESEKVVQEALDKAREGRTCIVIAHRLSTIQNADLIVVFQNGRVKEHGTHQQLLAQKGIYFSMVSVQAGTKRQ

In general, IC50 refers to the point on the concentration scale where inhibition reaches its midpoint. For `COc1cccc2c1C(=O)c1c(O)c3c(c(O)c1C2=O)C[C@@](O)(C(=O)CO)C[C@@H]3O[C@H]1C[C@H](N)[C@H](O)[C@H](C)O1` [Doxorubicin, doxorubicin], the results for the “Fold Resistance” value in the data set on HCT-8 cells [1] and in the data set on HCT-8/V cells [2] were 1.0 fold and 19.94 fold, respectively. In addition, the 50% inhibitory concentration (IC50) with HCT-8 cells [1] (Homo sapiens, 72 h MTT) stood at 0.35 ± 0.081 µM; with HCT-8/V cells [2] (Homo sapiens, 72 h MTT), 6.98 ± 0.444 µM.
Regarding `O=S(=O)(NCCNCC=Cc1ccc(Br)cc1)c1cccc2cnccc12` [H89, N-[2-(p-bromocinnamylamino)ethyl]-5-isoquinolinesulfonamide], the “Fold Resistance to Doxorubicin in combination” value in the data set with HCT-8 cells [1] (HCT-8, Doxorubicin + 3 μM of the labelled inhibitor) worked out at 1.06 fold; with HCT-8 cells [1] (HCT-8, Doxorubicin + 10 μM of the labelled inhibitor), 1.05 fold; in the data set with HCT-8/V cells [2] (Doxorubicin + 3 μM of the labelled inhibitor) it was 4.53 fold; with HCT-8/V cells [2] (Doxorubicin + 10 μM of the labelled inhibitor) it was 1.85 fold. Besides, the “Fold Resistance to Oxaliplatin in combination” value in the data set with HCT-8 cells [1] (HCT-8, Oxaliplatin + 3 μM of the labelled inhibitor) is recorded as 0.96 fold; in the data set on HCT-8 cells [1] (HCT-8, Oxaliplatin + 10 μM of the labelled inhibitor) it was 0.91 fold; with HCT-8/V cells [2] (Oxaliplatin + 3 μM of the labelled inhibitor), 0.89 fold; with HCT-8/V cells [2] (Oxaliplatin + 10 μM of the labelled inhibitor) it was 0.79 fold. Also, the “Fold Resistance to Vincristine in combination” value in the data set with HCT-8 cells [1] (HCT-8, Vincristine + 3 μM of the labelled inhibitor) was determined as 0.96 fold; in the data set with HCT-8 cells [1] (HCT-8, Vincristine + 10 μM of the labelled inhibitor) it was 0.88 fold; in the data set on HCT-8/V cells [2] (Vincristine + 3 μM of the labelled inhibitor) it was 5.60 fold; with HCT-8/V cells [2] (Vincristine + 10 μM of the labelled inhibitor) it was 1.88 fold. For the same molecule, the “Cytotoxicity of H89 alone” value in the data set with HCT-8 cells [1] (HCT-8, at concentrations below 30 μM, 72 h MTT) is “low cytotoxicity”; with HCT-8/V cells [2] (at concentrations below 30 μM, 72 h MTT) it was “low cytotoxicity”. Moreover, the “Intracellular accumulation of doxorubicin and rhodamine 123” value is “not observed” with HCT-8 cells [3]; “elevated doxorubicin and rhodamine 123 levels in HCT-8/V cells dose-dependently” in the data set with HCT-8/V cells [4] (1 h pretreatment, then 10 μM doxorubicin or rhodamine 123 for 2 h). Further, the “Intracellular accumulation of substrate drugs compared with verapamil” value in the data set with HCT-8/V cells [4] (10 μM H89 vs 10 μM verapamil) is “achieved or even exceeded the inhibitory effect of verapamil”. Also, the “Intracellular rhodamine 123 levels” value in the data set on HCT-8/V cells [4] (30 μM H89) was “comparable to that in HCT-8 cells”. Moreover, in the data set on ABCB1 [5], the “ABCB1 protein level relative to β-tubulin” value was “did not alter ABCB1 protein level”. The concentration for half-maximal inhibition (IC50) at ABCB1 [6] came to 246 nM.
Consider `O=C1[O][Pt]2([NH][C@@H]3CCCC[C@H]3[NH]2)[O]C1=O` [Oxaliplatin, oxaliplatin], for which the results for the IC50 in the data set with HCT-8 cells [1] (72 h MTT) and in the data set on HCT-8/V cells [2] (72 h MTT) were 9.3 ± 0.549 µM and 10.1 ± 0.09 µM, respectively. The “Fold Resistance” value in the data set on HCT-8 cells [1] is 1.0 fold; with HCT-8/V cells [2] it was 1.08 fold.
In the case of `CC[C@]1(O)C[C@H]2CN(CCc3c([nH]c4ccccc34)[C@@](C(=O)OC)(c3cc4c(cc3OC)N(C=O)[C@H]3[C@@](O)(C(=O)OC)[C@H](OC(C)=O)[C@]5(CC)C=CCN6CC[C@]43[C@@H]65)C2)C1` [Vincristine, vincristine], the IC50 in the data set on HCT-8 cells [1] (Homo sapiens, 72 h MTT) is 0.025 ± 0.002 µM; in the data set with HCT-8/V cells [2] (Homo sapiens, 72 h MTT), above 30 µM.
